# Test results published in PMC4744035, “In Vivo, In Vitro, and In Silico Characterization of Peptoids as Antimicrobial Agents” (PLoS ONE, 2016).
# Where two headings read alike, the source gives them in different places. Numbered stars: 1 amine (or outer) side, 2 acyl side, 3 side chain; on linkers, the order of the positions; unused ones are H or OH. Square brackets hold non-standard residues; d marks the D form. Peptide text beside a SMILES is read from it. X1 = CC(C)[C@H](C)N(CC(=O)[*:2])[*:1]; Nspe = C[C@H](NCC(=O)O)c1ccccc1; Nlys = NCCCCNCC(=O)O
# What was measured:
# [1] = tested on: P. aeruginosa H1030 (MDR); assay: microbe, parasite or virus in culture; conditions: P. aeruginosa H1030 (MDR)
# Outline: (§1)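 Agents were diluted serially at 10x in acetic acid/BSA, added to Mueller Hinton medium, then inoculated with bacteria at 2–7 x 10^5 CFU/mL. Plates were incubated overnight at 37°C and scored for growth.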
# E. faecalis ATCC29212 = assay: microbe, parasite or virus in culture
# Outline: as §1
# [2] = tested on: P. aeruginosa H103 (wild type); assay: microbe, parasite or virus in culture
# Outline: as §1
# E. faecalis W61950 (VRE) = assay: microbe, parasite or virus in culture
# Outline: as §1
# P. maltophilia ATCC13637 = assay: microbe, parasite or virus in culture
# Outline: as §1
# S. aureus C623 (MRSA) = assay: microbe, parasite or virus in culture
# Outline: as §1
# E. coli 64771 (ESBL) = assay: microbe, parasite or virus in culture
# Outline: as §1
# [3] = tested on: P. aeruginosa H1027 (MDR); assay: microbe, parasite or virus in culture
# Outline: as §1
# [4] = tested on: E. cloacae 218R Class C β-lactamase; assay: microbe, parasite or virus in culture
# Outline: as §1
# E. faecalis F43559 (VRE) = assay: microbe, parasite or virus in culture
# Outline: as §1
# E. faecium mic80 (VRE) = assay: microbe, parasite or virus in culture
# Outline: as §1
# P. aeruginosa 9 (MDR) = assay: microbe, parasite or virus in culture
# Outline: as §1
# [5] = tested on: P. aeruginosa LES400 (MDR); assay: microbe, parasite or virus in culture
# Outline: as §1
# [6] = tested on: K. pneumonia 63575 (ESBL); assay: microbe, parasite or virus in culture
# Outline: as §1
# [7] = tested on: K. pneumonia 61962 (ESBL); assay: microbe, parasite or virus in culture
# Outline: as §1
# P. aeruginosa 198 (MDR) = assay: microbe, parasite or virus in culture
# Outline: as §1
# S. aureus ATCC25923 = assay: microbe, parasite or virus in culture
# Outline: as §1
# E. faecium T62764 (VRE) = assay: microbe, parasite or virus in culture
# Outline: as §1
# P. aeruginosa 213 (MDR) = assay: microbe, parasite or virus in culture
# Outline: as §1
# E. coli 63103 (ESBL) = assay: microbe, parasite or virus in culture
# Outline: as §1
# E. coli ATCC 35218 = assay type: cell-based
# Outline: (§2)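 MICs determined by 2:1 serial broth microdilution in cation-adjusted Mueller-Hinton broth per CLSI M7-A6, using inoculum at 1 x 10^6 CFU/mL mixed 1:1 with peptoid solution. Three independent replicates, each with two parallel trials.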
# B. subtilis ATCC 6633 = assay type: cell-based
# Outline: as §2
# erythrocytes = assay: Hemolytic activity (HD10/HD50); assay type: cell-based
# Source text: Table 1 Characteristics of antimicrobial peptoids, screened for activity against B. subtilis and E. coli bacterial strains. | column: HD10 / HD50
# NIH 3T3 cells = assay: Metabolic activity, MTS assay; assay type: cell-based, mouse
# Method: NIH 3T3 mouse fibroblast cells were cultured in complete Dulbecco’s Modified Eagle’s Media. A peptoid solution plate (100 µL per well) was prepared by serial dilution of aqueous peptoid stock solutions in Hank’s balanced salt solution. A day-old cell monolayer was washed thoroughly with Hank’s balanced salt solution and replenished with 100 µL Hank’s balanced salt solution per well. Peptoid solutions were transferred onto the day-old cell monolayers, which contained approximately 5000 cells per well. […] The average of six replicate trials is reported.
SMILES,MIC [1] [µg/mL],MIC (E. faecalis ATCC29212; E. faecalis ATCC29212) [µg/mL],MIC E. coli (E. coli ATCC 35218) [µM],MIC B. subtilis (B. subtilis ATCC 6633) [µM],MIC ([2]; H103 (wild type)) [µg/mL],MIC (E. faecalis W61950 (VRE); W61950 (VRE)) [µg/mL],MIC (P. maltophilia ATCC13637; ATCC13637) [µg/mL],MIC (S. aureus C623 (MRSA); C623) [µg/mL],MIC (E. coli 64771 (ESBL); 64771 (ESBL)) [µg/mL],MIC ([3]; H1027 (MDR)) [µg/mL],MIC ([4]; 218R Class C β-lactamase) [µg/mL],MIC (E. faecalis F43559 (VRE); F43559 (VRE)) [µg/mL],MIC (E. faecium mic80 (VRE); mic80 (VRE)) [µg/mL],MIC (P. aeruginosa 9 (MDR); 9 (MDR)) [µg/mL],MIC ([5]; LES400 (MDR)) [µg/mL],MIC [6] [µg/mL],MIC [7] [µg/mL],MIC (P. aeruginosa 198 (MDR); 198 (MDR)) [µg/mL],MIC (S. aureus ATCC25923; ATCC25923) [µg/mL],MIC (E. faecium T62764 (VRE); T62764 (VRE)) [µg/mL],also measured
"C[C@H](c1ccccc1)N(CC(N)=O)C(=O)CN(C(=O)CN(CCCCN)C(=O)CN(C(=O)CN(C(=O)CN(CCCCN)C(=O)CN(C(=O)CN(C(=O)CN(CCCCN)C(=O)CN(C(=O)CN(C(=O)CNCCCCN)[C@@H](C)c1ccccc1)[C@H](C)c1ccccc1)[C@@H](C)c1ccccc1)[C@H](C)c1ccccc1)[C@@H](C)c1ccccc1)[C@H](C)c1ccccc1)[C@@H](C)c1ccccc1 [1-Nrpe3,6,9,12, H-(NLys-Nspe-Nrpe)4-NH2]",8,4,6.3,1.6,,,,,,,,,,,,,,,,,"MIC ([2]; P. aeruginosa H103 (wild type)): 8 µg/mL; MIC (E. faecalis W61950 (VRE); E. faecalis W61950 (VRE)): 8 µg/mL; MIC (P. maltophilia ATCC13637; P. maltophilia ATCC13637): 2 µg/mL; MIC (S. aureus C623 (MRSA); S. aureus C623 (MRSA)): 4 µg/mL; MIC (E. coli 64771 (ESBL); E. coli 64771 (ESBL)): 4 µg/mL; MIC ([3]; P. aeruginosa H1027 (MDR)): 4 µg/mL; MIC ([4]; E. cloacae 218R Class C β-lactamase): 4 µg/mL; MIC (E. faecalis F43559 (VRE); E. faecalis F43559 (VRE)): 4 µg/mL; MIC (E. faecium mic80 (VRE); E. faecium mic80 (VRE)): 4 µg/mL; MIC (P. aeruginosa 9 (MDR); P. aeruginosa 9 (MDR)): 32 µg/mL; MIC ([5]; P. aeruginosa LES400 (MDR)): 4 µg/mL; MIC ([6]; K. pneumonia 63575 (ESBL)): 16 µg/mL; MIC ([7]; K. pneumonia 61962 (ESBL)): 8 µg/mL; MIC (P. aeruginosa 198 (MDR); P. aeruginosa 198 (MDR)): 8 µg/mL; MIC (S. aureus ATCC25923; S. aureus ATCC25923): 4 µg/mL; MIC (E. faecium T62764 (VRE); E. faecium T62764 (VRE)): 1 µg/mL; MIC (P. aeruginosa 213 (MDR); P. aeruginosa 213 (MDR)): 8 µg/mL; MIC (E. coli 63103 (ESBL); E. coli 63103 (ESBL)): 4 µg/mL; HD10 (hemolytic activity) (erythrocytes; erythrocytes, first value of HD10 / HD50 cell): 16; HD50 (hemolytic activity) (erythrocytes; erythrocytes, second value of HD10 / HD50 cell): 67"
"CC(C)[C@H](C)N(CC(=O)N(CC(=O)N(CCCCN)CC(=O)N(CC(=O)N(CC(=O)N(CCCCN)CC(=O)N(CC(=O)N(CC(=O)N(CCCCN)CC(=O)N(CC(=O)N(CC(N)=O)[C@@H](C)c1ccccc1)[C@@H](C)C(C)C)[C@@H](C)c1ccccc1)[C@@H](C)C(C)C)[C@@H](C)c1ccccc1)[C@@H](C)C(C)C)[C@@H](C)c1ccccc1)C(=O)CNCCCCN [1-Nsdp2.5.8.11, H-(NLys-Nsdp-Nspe)4-NH2] (H-[Nlys][X1][Nspe][Nlys][X1][Nspe][Nlys][X1][Nspe][Nlys][X1][Nspe]-NH2)",16,8,12.5,0.78,8,32,1,8,8,4,16,32,4,256,16,32,64,32,8,2,"MIC (P. aeruginosa 213 (MDR); 213 (MDR)): 16 µg/mL; MIC (E. coli 63103 (ESBL); 63103 (ESBL)): 16 µg/mL; ID50 (inhibitory dose, metabolic activity) (NIH 3T3 cells): 20 µM; HD10 (hemolytic activity) (erythrocytes): 111; HD50 (hemolytic activity) (erythrocytes): > 200"
"CC(C)[C@H](C)N(CC(N)=O)C(=O)CN(C(=O)CN(CCCCN)C(=O)CN(C(=O)CN(C(=O)CN(CCCCN)C(=O)CN(C(=O)CN(C(=O)CN(CCCCN)C(=O)CN(C(=O)CN(C(=O)CNCCCCN)[C@@H](C)C(C)C)[C@@H](C)C(C)C)[C@@H](C)C(C)C)[C@@H](C)C(C)C)[C@@H](C)C(C)C)[C@@H](C)C(C)C)[C@@H](C)C(C)C [Peptoid 1-Nsdpall, H-(NLys-Nsdp-Nsdp)4-NH2]",32,,25,0.78,32,128,1,8,16,4,32,128,16,256,32,128,128,128,16,4,"MIC (E. faecalis ATCC29212; ATCC29212): 64 µg/mL; MIC (P. aeruginosa 213 (MDR); 213 (MDR)): 64 µg/mL; MIC (E. coli 63103 (ESBL); 63103 (ESBL)): 64 µg/mL; ID50 (inhibitory dose, metabolic activity) (NIH 3T3 cells): 64 µM; HD10 (hemolytic activity) (erythrocytes): >200 / >200; HD50 (hemolytic activity) (erythrocytes): >200 / >200"
